Here are results for 74 compounds from US20240246941A1, “SUBSTITUTED 4-(3-AMINOPROP-1-YL)AMINOQUINOLINE ANALOGS AS MODULATORS OF MELANOMA-ASSOCIATED ANTIGEN 11 UBIQUITIN LIGASE” (ST. JUDE CHILDREN'S RESEARCH HOSPITAL, INC., priority 2020, published 2024).

SMILES strings stand for the structures.

The target in one test is MAGE-A11:PCF11 (Homo sapiens (Human), UniProt P43364). The test is described as follows: TR-FRET single point screening at 15 μM. The class given is binding. More on the design: unit not given here. The conditions noted are these: single point TR-FRET screening at 15 μM against MAGE-A11:PCF11. The essentials: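 Competition TR-FRET: compounds at final 15 μM mixed with 200 nM FAM-PCF11_4, 5 nM GST-MAGEA11 and 5 nM Tb-anti-GST in Tris pH 7.5/MgCl2/BSA/DTT buffer, room temperature, 90 min. Emission ratio 520/490 nm (340 nm excitation) expressed as % inhibition relative to positive and negative controls.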
MAGE-A11:PCF11, sequence (P43364 218-429): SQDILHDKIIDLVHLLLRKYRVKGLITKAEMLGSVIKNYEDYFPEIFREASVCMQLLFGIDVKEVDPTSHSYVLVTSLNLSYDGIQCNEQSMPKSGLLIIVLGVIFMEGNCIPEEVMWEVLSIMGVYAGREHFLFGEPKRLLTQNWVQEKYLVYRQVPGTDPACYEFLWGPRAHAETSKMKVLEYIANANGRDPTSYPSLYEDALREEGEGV
Background: Time-resolved FRET reads energy transfer from a long-lived donor to a nearby acceptor.
As to `CCc1ccc2ncc(S(=O)(=O)c3ccc(C)c(C)c3)c(N3CCN(CC)CC3)c2c1` [SJ000247334], the TR-FRET signal is −4.712.

The compound `CCN1CCN(c2c(S(=O)(=O)c3ccc(C)c(C)c3)cnc3ccc(OC)cc23)CC1` [SJ000247335] yielded a TR-FRET signal of −4.579. `CN1CCN(c2c(C(=O)c3ccccc3)cnc3ccc(Cl)cc23)CC1` [SJ000247338]: the TR-FRET signal is recorded as −5.573. The same measure, in the same setting: in the case of `CCOc1ccc(C(=O)c2cnc3ccc(C)cc3c2N2CCN(CC)CC2)cc1` [SJ000247339] it was −10.81; in that of `Cc1ccc(S(=O)(=O)c2cnc3ccc(F)cc3c2N2CCN(C)CC2)cc1C` [SJ000247344], −7.627. Same read-out and setting: in the case of `CCN1CCN(c2c(S(=O)(=O)c3ccc(C)c(C)c3)cnc3ccc(F)cc23)CC1` [SJ000247345] it was 1.118; in that of `CCOc1ccc2ncc(S(=O)(=O)c3ccc(C)c(C)c3)c(N3CCN(C)CC3)c2c1` [SJ000247354], −14.05.

`CCOc1ccc2ncc(S(=O)(=O)c3ccc(C)c(C)c3)c(N3CCN(CC)CC3)c2c1` [SJ000247355] yielded a TR-FRET signal of −13.39. The compound `CCN1CCN(c2c(C(=O)c3ccccc3)cnc3ccc(OC)cc23)CC1` [SJ000247365] displayed a TR-FRET signal of −0.2733.

As to `CCN1CCN(c2c(S(=O)(=O)c3ccc(Cl)cc3)cnc3ccccc23)CC1` [SJ000247367], the TR-FRET signal is −2.261.

`CCc1ccc(S(=O)(=O)c2cnc3ccccc3c2N2CCN(C)CC2)cc1` [SJ000278939]: the TR-FRET signal worked out at 11.58.

For `CCOC(=O)c1cnc2ccc(OC)cc2c1N1CCN(C)CC1` [SJ000279507], the TR-FRET signal is −2.791. The compound `CCOC(=O)c1cnc2ccc(OCC)cc2c1N1CCN(C)CC1` [SJ000279526] registered a TR-FRET signal of −7.064. For the compound `CCOC(=O)c1cnc2c(CC)cccc2c1NCCN1CCOCC1` [SJ000279714], the TR-FRET signal was −6.103. In turn, `CCOC(=O)c1cnc2ccc(C(=O)O)cc2c1N1CCN(CCO)CC1` [SJ000280902] showed a TR-FRET signal of −0.5958. Same read-out and setting: as for `CCOC(=O)c1cnc2c(C(F)(F)F)cccc2c1NCCN1CCOCC1` [SJ000281260], the figure is 0.8341; as for `CCN(CC)CCCC(C)Nc1ccnc2cc(Cl)ccc12` (centres unmarked) [SJ000285185], −2.592. Compound `CCN(CC)CCCC(C)Nc1c2ccc(Cl)cc2nc2ccc(OC)cc12` (centres unmarked) [SJ000285202] gave a TR-FRET signal of −265.7.

For the compound `CCN(CCO)CCCC(C)Nc1ccnc2cc(Cl)ccc12` (centres unmarked) [SJ000286026], the TR-FRET signal was determined as 3.702. `Clc1ccc2c(NC3CCN(Cc4ccc(Cl)o4)CC3)ccnc2c1` [SJ000311180] registered a TR-FRET signal of 0.6827. Same read-out and setting: as for `Oc1ccc(Br)cc1CN1CCC(Nc2ccnc3cc(Cl)ccc23)CC1` [SJ000311181], the figure is −1.209; as for `CCCN(CCCCNc1ccnc2cc(Cl)ccc12)CCCSC` [SJ000311197], 3.903; as for `CCCN(CCCCNc1ccnc2cc(Cl)ccc12)Cc1ccc[nH]1` [SJ000311198], −0.9977. Compound `CCCN(CCCCNc1ccnc2cc(Cl)ccc12)Cc1sccc1C` [SJ000311199] yielded a TR-FRET signal of 6.494. On to `CCCN(CCCCNc1ccnc2cc(Cl)ccc12)Cc1ccoc1` [SJ000311200], for which the TR-FRET signal turned out to be 12.31. The compound `CCCN(CCCCNc1ccnc2cc(Cl)ccc12)Cc1cc(F)ccc1OC` [SJ000311202] displayed a TR-FRET signal of 5.396. Same read-out and setting: as for `CCCN(CCCCNc1ccnc2cc(Cl)ccc12)Cc1c(F)cccc1OC` [SJ000311203], the figure is 6.844.

Consider `CCCN(CCCCNc1ccnc2cc(Cl)ccc12)Cc1c[nH]c2ccccc12` [SJ000311204], for which the TR-FRET signal is −3.378. In turn, `CCCN(CCCCNc1ccnc2cc(Cl)ccc12)Cc1ccccc1` [SJ000311205] came in with a TR-FRET signal of 7.684.

Still in this test, the particulars now being: single point TR-FRET screening of quinoline compounds against MAGE-A11:PCF11; 15 μM.
`CCOC(=O)c1cnc2c(Cl)cccc2c1NCCCN1CCOCC1` [SJ000279431] had a TR-FRET signal of 4.102.

`CCOC(=O)c1cnc2ccc(OCC)cc2c1NCCCN1CCOCC1.Cl` [SJ000279525] displayed a TR-FRET signal of 5.532. With `CCOC(=O)c1cnc2c(C)cccc2c1NCCCN1CCOCC1` [SJ000279636], the TR-FRET signal is reported as 3.353. `CCOC(=O)c1cnc2ccc(C(=O)OC)cc2c1NCCCN1CCOCC1` [SJ000279665]: the TR-FRET signal was 10.71. `CCOC(=O)c1cnc2ccc(F)cc2c1NCCCN1CCOCC1` [SJ000279864] gave a TR-FRET signal of −0.3915.

With `Clc1ccc2c(NCCCN(Cc3ccccc3)CC3CC=CCC3)ccnc2c1` (centres unmarked) [SJ000311182], the TR-FRET signal was 16.09. Take `CC(C)CCN(CCCNc1ccnc2cc(Cl)ccc12)Cc1ccccc1` [SJ000311183]: the TR-FRET signal was 2.673.

`CC(CCN(CCCNc1ccnc2cc(Cl)ccc12)Cc1ccccc1)c1ccccc1` (centres unmarked) [SJ000311184] displayed a TR-FRET signal of 17.35. As to `Cc1ccsc1CNCCCNc1ccnc2cc(Cl)ccc12` [SJ000311189], the TR-FRET signal is listed as 6.554. Take `Cc1ccc(CNCCCNc2ccnc3cc(Cl)ccc23)s1` [SJ000311190]: the TR-FRET signal was determined as 10.83. The compound `CCCN(CCCNc1ccnc2cc(Cl)ccc12)Cc1ccc(Br)o1` [SJ000311195] displayed a TR-FRET signal of 14.48. Same read-out and setting: as for `c1ccc(Oc2ccc3c(NCCCNCc4ccco4)ccnc3c2)cc1` [SJ000311206], the figure is 14.59; as for `COc1ccccc1Oc1ccc2c(NCCCNCc3ccco3)ccnc2c1` [SJ000311210], 24.56; as for `COc1cccc(Oc2ccc3c(NCCCNCc4ccco4)ccnc3c2)c1` [SJ000311214], 29.11. `COc1ccc(Oc2ccc3c(NCCCNCc4ccco4)ccnc3c2)cc1` [SJ000311218] showed a TR-FRET signal of 36.25. On the same count and under the same terms, as for `Fc1ccc(Oc2ccc3c(NCCCNCc4ccco4)ccnc3c2)cc1` [SJ000311222], the figure is 9.365. `Clc1ccc(Oc2ccc3c(NCCCNCc4ccco4)ccnc3c2)cc1` [SJ000311226] gave a TR-FRET signal of 37.65. Compound `CN(C)c1cccc(Oc2ccc3c(NCCCNCc4ccco4)ccnc3c2)c1` [SJ000311230] displayed a TR-FRET signal of 63.42. As for `CC(C)(C)c1ccc(Oc2ccc3c(NCCCNCc4ccco4)ccnc3c2)cc1` [SJ000311234], the TR-FRET signal came out at 57.54. `Fc1ccc(-c2ccc3c(NCCCNCc4ccco4)ccnc3c2)cc1` [SJ000311238] returned a TR-FRET signal of 27.43. Regarding `CC(C)CCc1ccc2c(NCCCNCc3ccco3)ccnc2c1` [SJ000311246], the TR-FRET signal is listed as 13.01. In turn, `c1coc(CNCCCNc2ccnc3cc(CC4CCCCC4)ccc23)c1` [SJ000311250] returned a TR-FRET signal of 40.66. Consider `c1ccc(CCc2ccc3c(NCCCNCc4ccco4)ccnc3c2)cc1` [SJ000311254], for which the TR-FRET signal came to 15.95. `CC(C)Cc1ccc2c(NCCCNCc3ccco3)ccnc2c1` [SJ000311258]: the TR-FRET signal came out at 8.874. The compound `c1coc(CNCCCNc2ccnc3cc(C4CCCCC4)ccc23)c1` [SJ000311262] showed a TR-FRET signal of 32.96. As for `CCC(CC)c1ccc2c(NCCCNCc3ccco3)ccnc2c1` [SJ000311266], the TR-FRET signal is recorded as 24.56. Turning to `FC(F)(F)c1cc(-c2ccc3c(NCCCNCc4ccco4)ccnc3c2)cc(C(F)(F)F)c1` [SJ000311270], the TR-FRET signal was found to be 59.71.

In turn, `c1coc(CNCCCNc2ccnc3cc(-c4cccc5ccccc45)ccc23)c1` [SJ000311274] registered a TR-FRET signal of 41.57. Regarding `FC(F)(F)c1ccc(-c2ccc3c(NCCCNCc4ccco4)ccnc3c2)cc1` [SJ000311278], the TR-FRET signal was 56.21.

`c1ccc(-c2ccc3c(NCCCNCc4ccco4)ccnc3c2)cc1` [SJ000311282] had a TR-FRET signal of 28.69.

Compound `CC(C)(C)c1ccc(-c2ccc3c(NCCCNCc4ccco4)ccnc3c2)cc1` [SJ000311286] showed a TR-FRET signal of 73.5. Compound `c1coc(CNCCCNc2ccnc3cc(-c4ccc5c(c4)OCO5)ccc23)c1` [SJ000311290] had a TR-FRET signal of 30.79. Same read-out and setting: in the case of `COc1ccc(-c2ccc3c(NCCCNCc4ccco4)ccnc3c2)cc1` [SJ000311294] it was 7.824. The same measure, in the same setting: in the case of `FC(F)(F)c1cccc(Cc2ccc3c(NCCCNCc4ccco4)ccnc3c2)c1` [SJ000311298] it was 27.01. `N#Cc1ccc(Cc2ccc3c(NCCCNCc4ccco4)ccnc3c2)cc1` [SJ000311302] gave a TR-FRET signal of 20.43. Take `c1ccc(Cc2ccc3c(NCCCNCc4ccco4)ccnc3c2)cc1` [SJ000311306]: the TR-FRET signal came to 64.54.

As to `COc1cc(Cc2ccc3c(NCCCNCc4ccco4)ccnc3c2)cc(OC)c1` [SJ000311310], the TR-FRET signal was determined as 23.79. `Clc1cccc(Cl)c1Cc1ccc2c(NCCCNCc3ccco3)ccnc2c1` [SJ000311314] gave a TR-FRET signal of 32.4. As to `Cc1cc(C)cc(Cc2ccc3c(NCCCNCc4ccco4)ccnc3c2)c1` [SJ000311318], the TR-FRET signal was 39.31. For `Fc1ccc(Cc2ccc3c(NCCCNCc4ccco4)ccnc3c2)c(Cl)c1` [SJ000311322], the TR-FRET signal is 24.77.

Take `Cc1ccc(CNCCCNc2ccnc3cc(Cl)ccc23)o1` [SJ000311326]: the TR-FRET signal is given as 10.2. The compound `Clc1ccc2c(NCCCN(Cc3ccccc3)Cc3ccco3)ccnc2c1` [SJ000312668] yielded a TR-FRET signal of 0.5217. Consider `Cc1ccc(CN(CCCNc2ccnc3cc(Cl)ccc23)Cc2ccccc2)o1` [SJ000312669], for which the TR-FRET signal amounted to 2.84. Compound `Clc1ccc2c(NCCCN(Cc3ccccc3)Cc3ccc(Br)o3)ccnc2c1` [SJ000312671] registered a TR-FRET signal of −1.797.

`Clc1ccc2c(NCCCN(Cc3ccccc3)Cc3cccs3)ccnc2c1` [SJ000312672]: the TR-FRET signal is on record as 4.744.
